From ChEMBL document CHEMBL1152135, “New synthesis and evaluation of enantiomers of 7-methyl-2-exo-(3'-iodo-5'-pyridinyl)-7-azabicyclo[2.2.1]heptane as stereoselective ligands for PET imaging of nicotinic acetylcholine receptors” (Bioorg Med Chem Lett, 2008) come the findings set out here.

A word on the Ki: it is the dissociation constant of the complex between target and ligand, obtained from inhibition or displacement. A high value points to lower affinity.

The nature of the experiment: Displacement of [3H]epibatine from nAChR in rat cortical membrane. The format is cell membranes. For orientation: Loss of bound radioactivity is the signal in a displacement assay; it reports binding, not function.
For the compound `Ic1cncc([C@H]2C[C@H]3CC[C@H]2N3)c1` (stereo in doubt; (+)-4), the inhibition constant Ki is 0.048 nM.
In the case of `CN1[C@@H]2CC[C@@H]1[C@@H](c1cncc(I)c1)C2` (stereo in doubt; (-)-5), the Ki stood at 1.68 nM.
`CN1[C@@H]2CC[C@@H]1[C@@H](c1cncc(I)c1)C2` (stereo in doubt; (+)-5) came in with an inhibitory constant (Ki) of 0.055 nM. This Ki is about 31-fold lower than that of the compound before.
As for `Clc1ccc(C2CC3CCC2N3)cn1` (stereo not given) [EPIBATIDINE], the Ki turned out to be 0.046 nM.
In the case of `Ic1cncc([C@H]2C[C@H]3CC[C@H]2N3)c1` (stereo in doubt; (-)-4), the inhibition constant (Ki) is 0.045 nM. The Ki values of the last two compounds are within 1.5-fold of each other.
